Experimental data published in PMC7708037, “Targeting OGG1 arrests cancer cell proliferation by inducing replication stress” (Nucleic Acids Research, 2020).

How the values were obtained:
[1] = system: γH2AX in A3 cells; experiment: Phosphorylated γH2AX (immunofluorescence / flow cytometry); format: cell-based, human; details: 10 μM
Procedure: A3 cells were seeded in a 96-well plate 24 h prior to start of the experiment. Cells were then treated with 10 μM TH5487, for 24, 48 and 72 h, respectively or with 2 mM hydroxyurea for 1 h. Final DMSO concentration was 0.2%. After the treatment, cells were transferred to an imaging plate (black Falcon 96-well plate) pre-coated with 0.1% poly L-lysine (Sigma). Cells were allowed to attach for 15 minutes and were then fixed with 4% paraformaldehyde. The plate was washed with 0.05% Tween 20 in PBS, cells were permeabilized with 0.5% Triton-X100 in PBS and blocked with 2% bovine serum albumin in PBS. […] Data from three independent experiments were pooled and analyzed for statistical significance by one-way analysis of variance.
At the indicated time points, compound/dox treated cells were incubated in medium containing 10 μM 5-ethynyl-2′-deoxyuridine (EdU) (Thermo Fisher, A10044) for 20 min. […] Data was analyzed using Kaluza® Flow Analysis Software (Beckman Coulter).
Figure 5. […] A3 cells were treated with 20 mM KBrO3 for 1 h or with 10 μM TH5487 for the indicated times, and the amount of genomic 8-oxodG was quantified with LC-MS/MS. […] A3 cells were treated with 10 μM TH5487 for 72 h and strand-breaks and OGG1 substrate lesions were analyzed with the OGG1-modified Comet assay. […] At least 33 000 nuclei per group were quantified from three independent experiments. […]

[2] = system: A3 OGG1-shRNA cells; experiment: Off-target evaluation in OGG1 knockdown A3 cells; format: cell-based, human
Procedure: Figure 4. Anticancer properties overlap between OGG1 loss and OGG1 inhibitors. (A) Viability of T-cell acute […] leukemia cell lines treated for 5 days with the indicated doses TH5487. Data are average ±SD of independent experiments (A3, n = 5; Jurkat, n = 3; MOLT-4, n = 4; CCRF-CEM, n = 3). (B) Relative cell numbers and (C) viability (%) for A3 cells treated for 5 days with 10 μM TH5487. Data are average ±SD of six replicates from three independent experiments. (D) Induction of apoptosis in A3 cells treated for 72 h TH5487 and stained for Annexin V. Data are average ±SD of three independent experiments. (E) A3 cells transfected with shRNA targeting OGG1 were treated with doxycycline for 6 days and stained for Annexin V. Data are average ±SD of two independent experiments. (F) Scheme for recovery experiment in which A3 OGG1-shRNA cells or A3 cells were silenced or inhibited for 6 days with doxycycline (200 nM) or TH5487 (10 μM). […] Statistical significance was determined using unpaired, two-sided t-tests (*P < 0.05, **P < 0.01, ***P < 0.001, ****P < 0.0001, ns, non-significant). […]
Statistical significance was determined using unpaired, two -sided T-tests (ns, non-significant, *, P<0.05, **, P<0.01, ***, P<0.001 and ****, P<0.0001) . […] D. Comparative bar graph with quantification from two independent Western blots. […]

## O=C(Nc1ccc(I)cc1)N1CCC(n2c(=O)[nH]c3c(Br)cccc32)CC1 [TH5487]
[1]; 72 h
  Cell cycle distribution of γH2AX positive cells: confined to S-phase cells
[1]; after 24 h
  Phosphorylated γH2AX: significant increase
[2]; A3 sh2, 6 days
  Additional toxic effect in combination with doxycycline: additional toxic effect
[2]; doxycycline 5 days, then additional 48 h with 10 μM
  Additional toxic effect in OGG1 knockdown cells: no significant additional toxic effect
